Test results taken from ChEMBL document CHEMBL5052837, “Ghrelin o-acyltransferase inhibitors” (2019).
Activity calls are given as the source filed them. The rule behind the calls is not given here.

How the values were obtained:
Mus musculus [1] = test: In vivo inhibition of GOAT in fasting mouse assessed as reduction in acyl ghrelin level at 1 to 10 mg/kg, po administered twice a day for 2 days; type: functional, organism-based; conditions: dose 1-10 mg/kg, time 2.0 day
Rattus norvegicus [2] = test: In vivo inhibition of GOAT in fasting rat assessed as increase in des-acyl ghrelin level at 10 mg/kg; type: functional, organism-based
Rattus norvegicus [3] = test: In vivo inhibition of GOAT in fasting rat assessed as reduction in acyl ghrelin level at 10 mg/kg; type: functional, organism-based
Mus musculus [4] = test: In vivo inhibition of GOAT in high fat, high carb (HFHC) diet-induced obesity model of C57BL/6 mouse assessed as increase in des-acyl ghrelin level at 10 mg/kg; type: functional, organism-based
Mus musculus [5] = test: In vivo inhibition of GOAT in high fat, high carb (HFHC) diet-induced obesity model of C57BL/6 mouse assessed as increase in des-acyl ghrelin level at 3 mg/kg; type: functional, organism-based
[6] = In vivo inhibition of GOAT in high fat, high carb (HFHC) diet-induced obesity model of C57BL/6 mouse assessed as reduction in acyl ghrelin level at 3 mg/kg; type: functional; design: scale not given: the % may be the effect or the level left

SMILES: O=C(O)Cc1csc2cc(O[C@H]3CCc4ncccc43)cc(Cl)c12
- Activity (Mus musculus [1]): Active
- Activity (Rattus norvegicus [2]): Active
- Activity (Rattus norvegicus [3]): Active
- Activity (Mus musculus [4]): Active

SMILES: Cc1c(C(=O)NN2CCCCC2)nn(-c2ccc(Cl)cc2Cl)c1-c1ccc(Cl)cc1 [RIMONABANT]
- Activity (Mus musculus [5]): Active
- Activity [6]: 61%
